Laboratory results from patent publication US20250195521A1 (Revolution Medicines, Inc., priority 2020, published 2025).

Tests used:
[1] = system: NCI-H358 cells (K-Ras G12C); assay: CellTiter-Glo cell viability, NCI-H358; type: cell-based, human; conditions: Homo sapiens, NCI-H358, 120 h, K-Ras G12C, 5-day treatment; read-out: H358 Cell Viability IC50
Protocol: Note—The following protocol describes a procedure for monitoring cell viability of K-Ras mutant cancer cell lines in response to a compound of the invention. Other RAS isoforms may be employed, though the number of cells to be seeded will vary based on cell line used.
Test compounds (132.5 nl) were directly dispensed into the assay plates containing cells. […] On day 5, assay plates and their contents were equilibrated to room temperature for approximately 30 minutes. […] Luminescence was measured using the PerkinElmer Enspire. Data were normalized by the following: (Sample signal/Avg. DMSO)*100. The data were fit using a four-parameter logistic fit.

[2] = system: Capan-1 cells (K-Ras G12V); assay: CellTiter-Glo cell viability, Capan-1; type: cell-based, human; conditions: Homo sapiens, CAPAN-1, 120 h, K-Ras G12V, 5-day treatment; read-out: Capan-1 Cell Viability IC50
How it was run: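 Luminescence read on day 5 after ~30 min room-temperature equilibration; compounds added directly to plated cells. Values = (sample signal/avg DMSO)*100, four-parameter logistic fit.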

[3] = biological target: KRAS G12S (Homo sapiens (Human), UniProt P01116+P62937, G12S); assay: Ras-Raf disruption/FRET/MOA assay (BRAF RBD, Cyclophilin A); type: biochemical; conditions: read-out: KRAS G12S FRET IC50
Sequence of KRAS G12S (P01116 other isoform, or with tags, fused parts or gaps G12S): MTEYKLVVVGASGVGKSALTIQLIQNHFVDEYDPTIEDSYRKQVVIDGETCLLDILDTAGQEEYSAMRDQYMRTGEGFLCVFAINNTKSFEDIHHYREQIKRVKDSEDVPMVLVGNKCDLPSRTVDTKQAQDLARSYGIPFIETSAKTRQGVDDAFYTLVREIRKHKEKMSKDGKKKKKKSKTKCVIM
Sequence of KRAS G12S (P62937 whole entry): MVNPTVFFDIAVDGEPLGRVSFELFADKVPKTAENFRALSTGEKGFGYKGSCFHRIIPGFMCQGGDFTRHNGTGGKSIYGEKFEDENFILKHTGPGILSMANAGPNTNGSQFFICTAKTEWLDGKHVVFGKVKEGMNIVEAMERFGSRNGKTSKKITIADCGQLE
How it was run: (§1)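 25 μM tagless Cyclophilin A, 12.5 nM His6-Ras-GMPPNP and 50 nM GST-BRAF RBD in HEPES pH 7.3 buffer with 5 mM MgCl2, with compound (10-point 3-fold series from 30 μM final) for 3 h at 25 °C. Anti-His Eu and anti-GST APC then added for 1.5 h. IC50 from TR-FRET ratio decrease versus DMSO.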

[4] = biological target: KRAS WT (Homo sapiens (Human), UniProt P01116+P62937); assay: as above; type: biochemical; conditions: read-out: KRAS WT FRET data IC50
Sequence of KRAS WT (P01116 other isoform, or with tags, fused parts or gaps): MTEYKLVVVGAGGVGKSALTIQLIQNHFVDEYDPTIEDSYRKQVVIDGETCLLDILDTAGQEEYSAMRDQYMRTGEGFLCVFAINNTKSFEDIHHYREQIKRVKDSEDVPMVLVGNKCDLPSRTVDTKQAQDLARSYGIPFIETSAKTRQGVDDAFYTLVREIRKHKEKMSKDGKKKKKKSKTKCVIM
Sequence of KRAS WT (P62937 whole entry): as the sequence (P62937 whole entry) above
How it was run: as §1

[5] = biological target: KRAS G12D (Homo sapiens (Human), UniProt P01116+P62937, G12D); assay: as above; type: biochemical; conditions: read-out: KRAS G12D FRET IC50
Sequence of KRAS G12D (P01116 other isoform, or with tags, fused parts or gaps G12D): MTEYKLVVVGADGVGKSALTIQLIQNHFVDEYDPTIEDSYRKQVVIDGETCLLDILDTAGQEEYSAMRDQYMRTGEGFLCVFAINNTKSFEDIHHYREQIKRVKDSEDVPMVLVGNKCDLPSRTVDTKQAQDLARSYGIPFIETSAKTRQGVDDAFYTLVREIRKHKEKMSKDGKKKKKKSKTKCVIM
Sequence of KRAS G12D (P62937 whole entry): as the sequence (P62937 whole entry) above
How it was run: as §1

[6] = biological target: KRAS G12C (Homo sapiens (Human), UniProt P01116+P62937, G12C); assay: as above; type: biochemical; conditions: read-out: KRAS G12C FRET IC50
Sequence of KRAS G12C (P01116-2 other isoform, or with tags, fused parts or gaps G12C): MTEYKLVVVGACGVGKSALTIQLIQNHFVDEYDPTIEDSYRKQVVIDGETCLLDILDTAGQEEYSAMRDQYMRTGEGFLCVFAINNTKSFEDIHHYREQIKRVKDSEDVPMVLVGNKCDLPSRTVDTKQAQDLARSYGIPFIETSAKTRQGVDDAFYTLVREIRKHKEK
Sequence of KRAS G12C (P62937 whole entry): as the sequence (P62937 whole entry) above
How it was run: as §1

[7] = biological target: KRAS G12V (Homo sapiens (Human), UniProt P01116+P62937, G12V); assay: as above; type: biochemical; conditions: read-out: KRAS G12V FRET IC50
Sequence of KRAS G12V (P01116 other isoform, or with tags, fused parts or gaps G12V): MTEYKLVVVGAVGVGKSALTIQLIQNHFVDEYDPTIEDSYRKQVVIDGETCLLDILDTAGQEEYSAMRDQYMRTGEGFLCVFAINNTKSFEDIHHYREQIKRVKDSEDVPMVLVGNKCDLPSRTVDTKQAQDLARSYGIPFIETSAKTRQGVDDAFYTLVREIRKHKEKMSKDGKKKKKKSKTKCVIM
Sequence of KRAS G12V (P62937 whole entry): as the sequence (P62937 whole entry) above
How it was run: as §1

[8] = biological target: KRAS G13C (Homo sapiens (Human), UniProt P01116+P62937, G13C); assay: as above; type: biochemical; conditions: read-out: KRAS G13C FRET IC50
Sequence of KRAS G13C (P01116 other isoform, or with tags, fused parts or gaps G13C): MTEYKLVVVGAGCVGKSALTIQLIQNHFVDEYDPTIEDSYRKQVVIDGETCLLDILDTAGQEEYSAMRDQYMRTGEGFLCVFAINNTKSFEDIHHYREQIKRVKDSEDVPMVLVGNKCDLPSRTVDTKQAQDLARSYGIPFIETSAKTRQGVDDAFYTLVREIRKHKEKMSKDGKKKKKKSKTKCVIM
Sequence of KRAS G13C (P62937 whole entry): as the sequence (P62937 whole entry) above
How it was run: as §1

[9] = biological target: KRAS G13D (Homo sapiens (Human), UniProt P01116+P62937, G13D); assay: as above; type: biochemical; conditions: read-out: KRAS G13D FRET data IC50
Sequence of KRAS G13D (P01116 other isoform, or with tags, fused parts or gaps G13D): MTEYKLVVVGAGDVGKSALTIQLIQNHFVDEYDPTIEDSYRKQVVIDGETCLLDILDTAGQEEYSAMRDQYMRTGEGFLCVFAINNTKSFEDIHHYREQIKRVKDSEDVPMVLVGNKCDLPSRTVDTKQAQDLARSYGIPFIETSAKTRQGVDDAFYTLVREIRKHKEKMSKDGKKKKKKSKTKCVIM
Sequence of KRAS G13D (P62937 whole entry): as the sequence (P62937 whole entry) above
How it was run: as §1

[10] = biological target: NRAS G12C (Homo sapiens (Human), UniProt P01111+P62937, G12C); assay: as above; type: biochemical; conditions: read-out: NRAS G12C FRET data IC50
Sequence of NRAS G12C (P01111 whole entry G12C): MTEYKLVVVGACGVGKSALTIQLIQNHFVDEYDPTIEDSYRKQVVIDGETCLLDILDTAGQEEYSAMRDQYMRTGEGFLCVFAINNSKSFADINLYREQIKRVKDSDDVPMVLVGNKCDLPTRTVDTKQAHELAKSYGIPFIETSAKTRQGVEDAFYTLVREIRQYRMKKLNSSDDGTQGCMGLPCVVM
Sequence of NRAS G12C (P62937 whole entry): as the sequence (P62937 whole entry) above
How it was run: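 TR-FRET read after 1.5 h with 10 nM anti-His Eu-W1024 and 50 nM anti-GST APC, following 3 h at 25 °C of GMPPNP-loaded His6-Ras (12.5 nM), GST-BRAF RBD (50 nM) and Cyclophilin A (25 μM) with compound from 30 μM final, 10 points, 3-fold. IC50 reported; pH 7.3 HEPES, 100 mM NaCl.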

Structure (SMILES)	IC50 [1] [µM]	IC50 [2] [µM]	IC50 [3] [µM]	IC50 [4] [µM]	IC50 [5] [µM]	IC50 [6] [µM]	IC50 [7] [µM]	IC50 [8] [µM]	IC50 [9] [µM]	IC50 [10] [µM]
CCn1c(-c2cccnc2[C@H](C)OC)c2c3cc(ccc31)-c1csc(n1)C[C@H](NC(=O)[C@H](C(C)C)N(C)C(=O)N1CC3CCC1CN3C)C(=O)N1CCC[C@H](N1)C(=O)OCC(C)(C)C2 [Compound A308]	0.1 to 1	0.1 to 1	1 to 10	0.1 to 1	1 to 10	0.1 to 1	1 to 10	1 to 10	1 to 10	0.1 to 1
CCn1c(-c2cccnc2[C@H](C)OC)c2c3cc(ccc31)-c1csc(n1)C[C@H](NC(=O)[C@H](C(C)C)N(C)C(=O)N1CC(N(C)C(C)C)C1)C(=O)N1CCC[C@H](N1)C(=O)OCC(C)(C)C2 [Compound A318]	0.01 to 0.1	0.01 to 0.1	0.1 to 1	0.1 to 1	1 to 10	0.1 to 1	0.1 to 1	0.1 to 1	0.1 to 1	0.1 to 1
CCn1c(-c2cccnc2[C@H](C)OC)c2c3cc(ccc31)-c1cccc(c1)C[C@H](NC(=O)[C@H](C(C)C)N(C)C(=O)N1CC(OC)C1)C(=O)N1CCC[C@H](N1)C(=O)OCC(C)(C)C2 [Compound A355]	0.1 to 1	0.1 to 1	1 to 10	0.1 to 1	1 to 10	0.1 to 1	0.1 to 1	0.1 to 1	1 to 10	0.1 to 1
CCn1c(-c2cccnc2[C@H](C)OC)c2c3cc(ccc31)-c1csc(n1)C[C@H](NC(=O)[C@H](C(C)C)N(C)C(=O)N1CCCCC1)C(=O)N1CCC[C@H](N1)C(=O)OCC(C)(C)C2 [Compound A363]	0.01 to 0.1	0.01 to 0.1	0.01 to 0.1	0.01 to 0.1	0.1 to 1	0.01 to 0.1	0.1 to 1	0.1 to 1	0.1 to 1	0.01 to 0.1
CCn1c(-c2cccnc2[C@H](C)OC)c2c3cc(ccc31)-c1cc(O)cc(c1)C[C@H](NC(=O)[C@H](C(C)C)N(C)C(=O)C1CC(C)C1)C(=O)N1CCC[C@H](N1)C(=O)OCC(C)(C)C2 (some centres unmarked) [Compound A384]	0.1 to 1	0.1 to 1	0.1 to 1	0.1 to 1	0.1 to 1	0.01 to 0.1	0.1 to 1	0.01 to 0.1	0.1 to 1	0.01 to 0.1
CCn1c(-c2cccnc2[C@H](C)OC)c2c3cc(ccc31)-c1cc(O)cc(c1)C[C@H](NC(=O)[C@H](C(C)C)N(C)C(=O)[C@H]1CC[C@@H]1N)C(=O)N1CCC[C@H](N1)C(=O)OCC(C)(C)C2 [Compound A392]	0.01 to 0.1	1 to 10	0.01 to 0.1	0.01 to 0.1	0.01 to 0.1	0.01 to 0.1	0.1 to 1	0.01 to 0.1	0.01 to 0.1	0.01 to 0.1
CCn1c(-c2cccnc2[C@H](C)OC)c2c3cc(ccc31)-c1cc(O)cc(c1)C[C@H](NC(=O)[C@H](C(C)C)N(C)C(=O)C1CCNC13CCC3)C(=O)N1CCC[C@H](N1)C(=O)OCC(C)(C)C2 (some centres unmarked) [Compound A393]	0.1 to 1	1 to 10	0.01 to 0.1	0.01 to 0.1	0.01 to 0.1	0.01 to 0.1	0.1 to 1	0.01 to 0.1	0.01 to 0.1	0.01 to 0.1
CCn1c(-c2cccnc2[C@H](C)OC)c2c3cc(ccc31)-c1csc(n1)C[C@H](NC(=O)[C@H](C(C)C)N(C)C(=O)N1CCOC[C@H]1C)C(=O)N1CCC[C@H](N1)C(=O)OCC(C)(C)C2 [Compound A402]	0.01 to 0.1	0.01 to 0.1	0.1 to 1	0.01 to 0.1	0.1 to 1	0.01 to 0.1	0.1 to 1	0.1 to 1	0.1 to 1	0.01 to 0.1
